Assay [1] addresses T1, PAI-1 (Homo sapiens, UniProt P05121). As to the kind of experiment: Measurement of PAI-1 inhibitory activity (t-PA / chromogenic substrate S-2288). The settings on record: statement in words referring to the test example (compound at 20 μM or 50 μM); numeric PAI-1 activities (%) only in FIGS. 1 to 7.
Description: The change in PAI-1 activity can be examined by setting, as an index, a reaction product produced by the action of t-PA on a substrate. […] It can be judged that when the amount of reaction product is larger, the PAI-1 inhibitory action is higher.
More specifically, human-derived PAI-1 was added to a 0.1% Tween 80-containing 100 mM Tris-HCl (pH 8) solution containing each of the above compounds in a given concentration (20 μM or 50 μM), and incubated at 37° C. for 15 minutes. Subsequently, human-derived tissue plasminogen activator (t-PA) (manufactured by American Diagnostica, Inc. (USA); the same applies hereinafter) adjusted to 0.3 pmol/μL, was added thereto, and further incubated at 37° C. for 15 minutes.
The target of assay [2] is T1, PAI-1. As to the kind of experiment: Reference Test Example (2) evaluation of fibrinolytic action (fibrin plate, mixture of PAI-1, t-PA and test compound). More on the design: purchased Molecular Innovations Inc. (USA). It is filed as biochemical. Conditions: room temperature, 18 hours. Here is the method: The compounds a and b were evaluated for fibrinolytic action in accordance with the document (Matsuo, O. et al., Haemostasis, 16, 43-50 (1986)).
More specifically, an aqueous solution (containing 25 mM barbital-sodium, 50 mM NaCl, and 25 mM CaCl2) containing a concentration of 1.5 mg/mL of fibrinogen (produced by Organon Teknica) was added, on a 9 cm-plate, to thrombin dissolved in 0.2 mL of physiological saline (10NIH U/mL: produced by Mochida Pharmaceutical Co., Ltd.), and the mixture was allowed to stand at room temperature for 2 hours. Using this mixture, fibrinolysis assay was conducted.
Namely, a mixture of PAI-1, t-PA, and each of the test compounds was dropped onto the plate and incubated at room temperature for 18 hours. After the incubation, fibrinolysis due to plasminogen activation was measured from the lysis area on the plate.

In assay [3] the target is T1, PAI-1. As to the kind of experiment: Reference Test Example (1) PAI-1 inhibitory activity assay (t-PA / S-2288). Conditions: concentrations of 35 μM and 50 μM; FIG. 8. More on the design: purchased Molecular Innovation(s) Inc. (USA). The format is biochemical. The method, then:
P-nitranilide removed from the chromogenic substrate (S-2288) by t-PA action was measured using a spectrophotometer at an absorbance of 405 nm at 5-minute intervals for 30 minutes.
Comparative tests were carried out in the same manner using, in place of the above test compounds, a compound (tiplaxtinin) of the formula below used as an antithrombotic drug in US clinical trials (provided that the given concentrations were 20, 35, and 50 μM).
FIGS. 8 (A), (B), and (C) each show PAI-1 activity (%) when the compound a (concentrations: 20, 35, and 50 μM), the compound b (concentrations: 20, 35, and 50 μM), and tiplaxtinin (comparative compound) (concentrations: 20, 35, and 50 μM) are added, respectively.

For assay [4], the system named is mouse model with pulmonary fibrosis artificially induced by bleomycin. As to the kind of experiment: Reference Test Example (3) effects on bleomycin-induced pulmonary fibrosis. Conditions: scored from 0 to 8 (method of Ashcort et al.); bleomycin + compound b 200 mg/kg p.o. twice/day for 14 days; FIG. 9. The format is in vivo, C57BL/6 mouse. The method, then: A C57BL/6 mouse (male, body weight: 19 to 21 g) was intraperitoneally anesthetized with pentobarbital, and an incision was made on the cervical organ. Ten mice were used as controls. The control mice (n=10) were endotracheally administered bleomycin (produced by Nippon Kayaku Co., Ltd.) (1.5 U/kg) lysed in physiological saline, twice a day for 14 days. On the other hand, the test mice were subjected to forcible oral administration with the compound b (200 mg/kg), suspended in a 0.5% carboxymethyl cellulose aqueous solution, twice a day for 14 days, in addition to the above endotracheal administration. Then, the lung tissues taken from these control mice and the test mice were analyzed, and further assayed for hydroxyproline levels. The hydroxyproline levels in the lung tissues were assayed in terms of the level in the hydrolysate of the lung tissues as described in the method of Kivirikko et al. (Anal. Biochem. 19, 249-255 (1967)). The levels (severity) of pulmonary fibrosis were scored from 0 to 8, based on the method of Ashcort et al. (J. Clin. Pathol. 41, 467-470 (1988)). Further, the control mice and the test mice were assayed for plasma PAI-1 activity (ng/mL).

T1 sequence (P05121 24-402): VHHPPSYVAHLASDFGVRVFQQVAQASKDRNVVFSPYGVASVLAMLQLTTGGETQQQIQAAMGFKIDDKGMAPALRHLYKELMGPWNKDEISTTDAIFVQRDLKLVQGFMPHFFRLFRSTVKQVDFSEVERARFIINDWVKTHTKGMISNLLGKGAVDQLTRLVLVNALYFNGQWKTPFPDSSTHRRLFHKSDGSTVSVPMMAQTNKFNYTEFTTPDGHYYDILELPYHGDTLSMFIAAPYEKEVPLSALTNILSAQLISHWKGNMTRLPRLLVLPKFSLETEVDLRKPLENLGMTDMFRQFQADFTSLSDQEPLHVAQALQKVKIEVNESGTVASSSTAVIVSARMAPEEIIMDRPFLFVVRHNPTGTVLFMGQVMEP

Regarding `O=C(COCC(=O)NC1CCCCCCCCCCC1)Nc1ccc(Cl)cc1C(=O)O` [Compound 11, 5-chloro-2-(([2-(cyclododecylamino)-2-oxoethoxy]acetyl)amino)benzoic acid], in assay [1], the “inhibitory action on PAI-1 activity” value is given as “excellent inhibitory action on PAI-1 activity”.

As for `CCC(CC(=O)Nc1scc(-c2ccccc2)c1C(=O)O)C(=O)Nc1scc(-c2ccccc2)c1C(=O)O` (centres unmarked) [compound a, 2-[3-(3′-carboxy-4′-phenylthiophen-2′-ylcarbamoyl)-pentanoylamino]-4-phenylthiophen-3-carboxylic acid], the “fibrinolytic action (lysis area on fibrin plate)” value in assay [2] is given as “inhibit fibrinolysis suppression caused by PAI-1”. For the same molecule, the “PAI-1 activity inhibitory action compared with tiplaxtinin” value in assay [3] is “higher PAI-1 activity inhibitory action at concentrations of 35 μM and 50 μM than tiplaxtinin”.

In the case of `O=C(COCC(=O)Nc1ccc(Cl)cc1C(=O)O)Nc1cccc(-c2ccncc2)c1` [Compound 2, 5-chloro-2-([(2-oxo-2-([3-(pyridin-4-yl)phenyl]amino)ethoxy)acetyl]amino)benzoic acid], in assay [1], the “inhibitory action on PAI-1 activity” value was “excellent inhibitory action on PAI-1 activity”.

Take `O=C(COCC(=O)N(c1ccccc1)C1CCCCC1)Nc1ccc(Cl)cc1C(=O)[O-].[Na+]` [Compound 15, 5-chloro-2-[((2-[cyclohexyl(phenyl)amino]-2-oxoethoxy)acetyl)amino]benzoic acid.sodium salt]: the “inhibitory action on PAI-1 activity” value in assay [1] is recorded as “excellent inhibitory action on PAI-1 activity”.

For the molecule `CC(=O)Nc1ccc(-c2ccc(C)c(NC(=O)COCC(=O)Nc3ccc(Cl)cc3C(=O)O)c2)cc1` [Compound 44, 2-([(2-([4′-(acetylamino)-4-methylbiphenyl-3-yl]amino)-2-oxoethoxy)acetyl]amino)-5-chlorobenzoic acid], the “inhibitory action on PAI-1 activity” value in assay [1] is listed as “excellent inhibitory action on PAI-1 activity”.

Take `O=C(COCC(=O)Nc1ccc(Cl)cc1C(=O)O)Nc1ccc(-c2ccoc2)cc1` [Compound 64, 5-chloro-2-([(2-([4-(furan-3-yl)phenyl]amino)-2-oxoethoxy)acetyl]amino)benzoic acid]: the “inhibitory action on PAI-1 activity” value in assay [1] is reported as “excellent inhibitory action on PAI-1 activity”.

For the molecule `O=C(COCC(=O)Nc1ccc(Cl)cc1C(=O)O)Nc1ccc(-c2ccncc2)cc1` [Compound 1, 5-chloro-2-([(2-oxo-2-([4-(pyridin-4-yl)phenyl]amino)ethoxy)acetyl]amino)benzoic acid], in assay [1], the “inhibitory action on PAI-1 activity” value is reported as “excellent inhibitory action on PAI-1 activity”.

For `O=C(COCC(=O)Nc1ccc(Cl)cc1C(=O)O)Nc1cccc(-c2cccs2)c1` [Compound 63, 5-chloro-2-([(2-oxo-2-([3-(thiophen-2-yl)phenyl]amino)ethoxy)acetyl]amino)benzoic acid], the “inhibitory action on PAI-1 activity” value in assay [1] was “excellent inhibitory action on PAI-1 activity”.

Take `Cc1ccc(-c2ccc(F)cc2)cc1NC(=O)C(=O)Nc1ccc(Cl)cc1C(=O)[O-].[Na+]` [Compound 20, 5-chloro-2-(([(4′-fluoro-4-methylbiphenyl-3-yl)amino](oxo)acetyl)amino)benzoic acid.sodium salt]: the “inhibitory action on PAI-1 activity” value in assay [1] is “excellent inhibitory action on PAI-1 activity”.

Take `CCC(CC(=O)Nc1scc(-c2cccs2)c1C(=O)O)C(=O)Nc1scc(-c2cccs2)c1C(=O)O` (centres unmarked) [compound b, 2-[3-(3′-carboxy-4′-thienylthiophen-2′-ylcarbamoyl)-pentanoylamino]-4-thienylthiophen-3-carboxylic acid]: the fibrosis score in assay [4] is 2.9±0.42. In addition, in assay [2], the “fibrinolytic action (lysis area on fibrin plate)” value is “inhibit fibrinolysis suppression caused by PAI-1”. Also, in assay [3], the “PAI-1 activity inhibitory action compared with tiplaxtinin” value was “higher PAI-1 activity inhibitory action at concentrations of 35 μM and 50 μM than tiplaxtinin”.

In the case of `O=C(COCC(=O)Nc1ccc(Cl)cc1C(=O)O)Nc1cccc(Cc2ccoc2)c1` [Compound 55, 5-chloro-2-([(2-([3-(furan-3-ylmethyl)phenyl]amino)-2-oxoethoxy)acetyl]amino)benzoic acid], the “inhibitory action on PAI-1 activity” value in assay [1] is “excellent inhibitory action on PAI-1 activity”.

For the origin of these results see patent US8415479B2, “Inhibitor of plasminogen activator inhibitor-1” (Renascience Co., Ltd., priority 2008, dated 2013).
